The text below walks through data of ChEMBL document CHEMBL2029340 (J Med Chem, 2012).

The subject of experiment [1] is Influenza A virus. Kind of experiment: Antiviral activity against amantidine-resistant Influenza A virus A/WSN/33(H1N1) infected in MDCK cells assessed as inhibition of virus-induced cytopathic effects after 3 days by CCK-8 assay. The following applies: A/WSN/1933(H1N1), 72 h. The format is functional, organism-based. In general terms: Cytopathic effects are the visible damage that an infection or toxin causes in cultured cells.

Experiment [2] deals with Influenza A virus. Kind of experiment: Antiviral activity against amantidine-resistant Influenza A virus A/WSN/33(H1N1) infected in MDCK cells assessed as reduction in plaque formation at 1 uM after 3 days by microscopy. The format is functional, organism-based. The following applies: A/WSN/1933(H1N1).
The test system of experiment [3] is Influenza A virus. Nature of the experiment: Antiviral activity against amantidine-resistant Influenza A virus A/WSN/33(H1N1) infected in MDCK cells assessed as reduction in plaque formation after 3 days by microplate counting of infectious particles assay. The following applies: A/WSN/1933(H1N1), 72 h. It is filed as functional, organism-based.
Experiment [4] deals with Influenza A virus. Kind of experiment: Antiviral activity against tamiflu-resistant Influenza A virus A/WSN/33 (H1N1) harboring neuraminidase 274Y mutant infected in MDCK cells assessed as reduction of nucleoprotein antigen level after 3 days. The format is functional, organism-based, A/WSN/1933(H1N1).
Experiment [5] concerns Influenza A virus. Nature of the experiment: Antiviral activity against Influenza A virus A/WSN/1933 (H1N1) harboring nucleoprotein 52H mutant infected in MDCK cells assessed as reduction of nucleoprotein antigen level after 3 days. It is filed as functional, organism-based.
Experiment [6] concerns Influenza A virus. Kind of experiment: Antiviral activity against Influenza A virus A/WSN/1933 (H1N1) harboring wild type nucleoprotein 52Y infected in MDCK cells assessed as reduction of nucleoprotein antigen level after 3 days. The following applies: 72 h. It is filed as functional, organism-based.
In experiment [7] the test system is Influenza A virus. Kind of experiment: Antiviral activity against amantidine-resistant Influenza A virus A/WSN/33(H1N1) infected in MDCK cells assessed as reduction in plaque formation at 0.3 uM after 3 days by microscopy. It is filed as functional, organism-based. The following applies: A/WSN/1933(H1N1).
Experiment [8] relates to Influenza A virus. Nature of the experiment: Antiviral activity against amantidine-resistant Influenza A virus A/WSN/33(H1N1) infected in MDCK cells assessed as reduction in plaque formation after 3 days by microscopy. It is filed as functional, organism-based. As to conditions: A/WSN/1933(H1N1).

As a reminder, the IC50 is the concentration that gives 50% inhibition.

Active and inactive are the calls of the source. No cut-off for these calls is given here.

`Cc1nnn(-c2ccccc2Cl)c1C(=O)N1CCN(c2ccc([N+](=O)[O-])cc2Cl)CC1`: the IC50 in experiment [1] came to 1.2 µM.

Consider `O=C(c1ccccc1-c1ccccc1)N1CCN(c2ccc([N+](=O)[O-])cc2Cl)CC1`, for which the IC50 in experiment [1] was 5.24 µM. The same measure, in the same setting: as for `NC12CC3CC(CC(C3)C1)C2` [AMANTADINE], the figure is above 50 µM; as for `Cc1nnn(-c2ccccc2)c1C(=O)N1CCN(c2ccc([N+](=O)[O-])cc2Cl)CC1`, 3.13 µM.

Take `Cc1[nH]nc(-c2ccccc2)c1C(=O)N1CCN(c2ccc([N+](=O)[O-])cc2Cl)CC1`: the IC50 in experiment [1] was determined as 3.38 µM. The same measure, in the same setting: as for `Cc1nnn(-c2cccc(Cl)c2)c1C(=O)N1CCN(c2ccc([N+](=O)[O-])cc2Cl)CC1`, the figure is 4.89 µM.

Consider `COc1ccccc1-n1nnc(C)c1C(=O)N1CCN(c2ccc([N+](=O)[O-])cc2Cl)CC1`, for which the outcome in experiment [2] and in experiment [7] was Active. The IC50 in experiment [1] is 0.68 µM; in experiment [3], 230 nM; in experiment [4], 1110 nM; in experiment [5], above 50 µM; in experiment [6], 1400 nM.

Turning to `Cc1nnn(-c2ccccc2OC(C)C)c1C(=O)N1CCN(c2ccc([N+](=O)[O-])cc2Cl)CC1`, the IC50 in experiment [1] worked out at 8.42 µM.

`Cc1nnn(-c2ccc(Cl)cc2)c1C(=O)N1CCN(c2ccc([N+](=O)[O-])cc2Cl)CC1`: in experiment [1], the IC50 came out at 4.93 µM. With `COc1ccccc1-n1nnc(C)c1C(=O)N1CCN(c2ccccc2Cl)CC1`, the IC50 in experiment [1] is 48.1 µM.

For `COc1ccc(-n2nnc(C)c2C(=O)N2CCN(c3ccc([N+](=O)[O-])cc3Cl)CC2)cc1`, the IC50 in experiment [1] is 5.61 µM. For the molecule `CCc1nnn(-c2ccccc2OC)c1C(=O)N1CCN(c2ccc([N+](=O)[O-])cc2Cl)CC1`, in experiment [1], the half-inhibitory concentration (IC50) was above 50 µM. Consider `COc1ccccc1-n1nnc(C)c1C(=O)N1CCCN(c2ccc([N+](=O)[O-])cc2Cl)CC1`, for which the concentration for half-maximal inhibition (IC50) in experiment [1] came to 35.5 µM. Take `Cc1noc(-c2ccccc2)c1C(=O)N1CCN(c2ccc([N+](=O)[O-])cc2Cl)CC1`: in experiment [1], the IC50 was determined as 4.83 µM. As to `COc1ccccc1-c1ccccc1C(=O)N1CCN(c2ccc([N+](=O)[O-])cc2Cl)CC1`, the IC50 in experiment [1] was 1.57 µM. `COc1ccccc1-n1nncc1C(=O)N1CCN(c2ccc([N+](=O)[O-])cc2Cl)CC1`: the IC50 in experiment [1] worked out at 8.36 µM. The same measure, in the same setting: as for `Cc1[nH]nc(-c2ccccc2Cl)c1C(=O)N1CCN(c2ccc([N+](=O)[O-])cc2Cl)CC1`, the figure is 0.72 µM; as for `COc1ccccc1-c1onc(C)c1C(=O)N1CCN(c2ccc([N+](=O)[O-])cc2Cl)CC1`, 0.71 µM; as for `COc1cccc(OC)c1-n1nnc(C)c1C(=O)N1CCN(c2ccc([N+](=O)[O-])cc2Cl)CC1`, 1.34 µM.

In the case of `COc1ccccc1-n1nnc(C)c1C(=O)N1CCN(c2ccc([N+](=O)[O-])cc2)CC1`, the IC50 in experiment [1] was 17 µM. Turning to `Cc1ccccc1-n1nnc(C)c1C(=O)N1CCN(c2ccc([N+](=O)[O-])cc2Cl)CC1`, in experiment [1], the IC50 came out at 2.4 µM.

`Cc1onc(-c2ccccc2)c1C(=O)N1CCN(c2ccc([N+](=O)[O-])cc2Cl)CC1` [NUCLEOZIN]: the 50% inhibitory concentration (IC50) was 0.32 µM in experiment [1]; 100 nM in experiment [3]; 660 nM in experiment [4]; above 50 µM in experiment [5]; 490 nM in experiment [6]. Besides, the Activity entry in experiment [8] was “Dose-dependent effect”. The outcome in experiment [7] was Active.

`CC(=O)c1ccccc1-n1nnc(C)c1C(=O)N1CCN(c2ccc([N+](=O)[O-])cc2Cl)CC1`: the IC50 in experiment [1] was 13.7 µM. Still for that read-out and setting: as for `CCOc1ccccc1-n1nnc(C)c1C(=O)N1CCN(c2ccc([N+](=O)[O-])cc2Cl)CC1`, the figure is 3.22 µM. Take `COc1ccccc1-n1nnc(C)c1C(=O)N1CCN(c2ccccc2)CC1`: in experiment [1], the IC50 was above 50 µM. In the case of `Cc1nnn(-c2ccccc2O)c1C(=O)N1CCN(c2ccc([N+](=O)[O-])cc2Cl)CC1`, in experiment [1], the IC50 stood at 1.58 µM. Consider `COc1cc([N+](=O)[O-])ccc1N1CCN(C(=O)c2c(C)nnn2-c2ccccc2OC)CC1`, for which, in experiment [1], the IC50 is above 50 µM.

As for `COc1cccc(-n2nnc(C)c2C(=O)N2CCN(c3ccc([N+](=O)[O-])cc3Cl)CC2)c1`, the half-maximal inhibitory concentration (IC50) in experiment [1] was 5.35 µM.
